Experiments:
[1] = system: human catecholamine receptor; assay: MAP kinase pathway stimulation, Elk-gal/luciferase reporter assay in HEK 293 cells transfected with H2-3pcDNA3.1; settings: HEK 293 cells expressing FLAG/D2-tagged human catecholamine receptor; compared with cells incubated in the absence of the ligand
[2] = system: HEK 293 cells transfected with pcDNA3.1 without catecholamine receptor sequences; assay: MAP kinase pathway stimulation, Elk-gal/luciferase reporter assay in control HEK 293 cells transfected with pcDNA3.1; settings: control HEK 293 cells with empty vector pcDNA3.1; compared with cells incubated in the absence of the ligand

SMILES | fold stimulation of luciferase (MAP kinase activation), H2-3 pcDNA3.1 [1] | fold stimulation of luciferase (MAP kinase activation), pcDNA3.1 [2]
NC1CCc2cc(O)c(O)cc2C1 (centres unmarked) [ADTN67] | 1.93 fold | 0.78 fold
C=CCN1CCc2c(cc(O)c(O)c2Cl)C(c2ccccc2)C1 (centres unmarked) [SKF82958] | 2.52 fold | 0.79 fold
NCCc1c[nH]c2ccc(O)cc12 [Serotonin] | 1.22 fold | 1 fold
NC[C@H](O)c1ccc(O)c(O)c1 [Norepinephrine] | 1.69 fold | 1.3 fold

— patent US6783973B1, “Mammalian catecholamine receptor genes and uses” (Oregon Health & Science University, priority 2000, dated 2004)
